Data: US9504747B2, “Lipids and lipid compositions for the delivery of active agents” (Novartis AG, priority 2013, dated 2016)

Key:
[1] = pKa measurement of the cationic lipid (TNS fluorescence vs pH); format: physicochemical; settings: probe TNS (fluorescent probe), pKa of the cationic lipid of formula (I)
Procedure, shortened: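 Lipid (2 mM ethanol stock) mixed with TNS probe (0.3 mM stock) and diluted into twelve sodium phosphate/citric acid buffers of varying pH. TNS fluorescence read after background subtraction and normalized to the lowest-pH value. pKa taken as the pH at half-maximal normalized fluorescence on the smoothed curve, precise to about 0.1 units.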

PLK-1 mRNA = assay: LS411N Xenograft Assay with PLK1-424 siRNA lipid nanoparticles; format: in vivo, Female Nu/Nu mice; settings: percent knock down of PLK-1 mRNA in tumor vs control, 3 mg/kg IV daily for three days, 24 h post last injection
Experimental: Female Nu/Nu mice (6-8 weeks old) were implanted subcutaneously with 5×10^6 LS411N cells. Tumor growth was monitored by caliper measurement before treatment initiation. Mice bearing 150-250 mm^3 subcutaneous tumors were randomized and enrolled in the study. The stock siRNA formulations were diluted to […] with PBS for dosing. Animals enrolled in different groups received a single daily bolus IV injection of 3 mg/kg siRNA for three days. Tumors were harvested 24 hours post last injection to assess target gene regulation by qRT-PCR.
Lipid nanoparticles comprising lipid compounds of formula (I) and the PLK1-424 siRNA duplex sequence listed above were tested in the LS411N Xenograft Assay. The results of this assay are given in Table 5 below as a percent knock down of PLK-1 mRNA as compared to the control when administered as a single daily dose for three days at a dose of 3 mg/kg.

[2] = Polydispersity index (PDI) of the lipid nanoparticle (dynamic light scattering); format: physicochemical
Procedure, shortened: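 LNPs made by impinging-jet mixing of lipids in ethanol with siRNA in citrate buffer, pH 4-6, siRNA:total lipid ~0.05 wt/wt; sterile filtered, stored at 4° C. Samples diluted in PBS to ~200-400 kcts count rate before dynamic light scattering. PDI reported as intensity-weighted average of fully formed particles.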

[3] = Particle size of the lipid nanoparticle (dynamic light scattering, Malvern Zetasizer); format: physicochemical; settings: Z-average
Source text: The lipid nanoparticles have a size of about 1 to about 2,500 nm, about 1 to about 1,500 nm, about 1 to about 1,000 nm, in a sub-embodiment about 50 to about 600 nm, in a sub-embodiment about 50 to about 400 nm, in a sub-embodiment about 50 to about 250 nm, and in a sub-embodiment about 50 to about 150 nm. Unless indicated otherwise, all sizes referred to herein are the average sizes (diameters) of the fully formed nanoparticle, as measured by dynamic light scattering on a Malvern Zetasizer. The nanoparticle sample is diluted in phosphate buffered saline (PBS) so that the count rate is approximately 200-400 kcts. The data is presented as a weighted average of the intensity measure. The lipid nanoparticles (LNPs) were formed by mixing equal volumes of lipids dissolved in alcohol with siRNA dissolved in a citrate buffer by an impinging jet process. […] The siRNA to total lipid ratio is approximately 0.05 (wt/wt). Where a LNP formulation contains four lipid components, the molar ratios correspond to the type of lipid as it appears in the first four columns of the table, in the order that they appear. The ratio of the lipids ranges from 20 to 70 mole percent for the cationic lipid with a target of 40-60, the mole percent of helper lipid ranges from 20 to 70 with a target of 30 to 50, the mole percent of neutral lipid ranges from 0-30, the mole percent of PEG lipid has a range from 1 to 6 with a target of 2 to 5. The concentration of siRNA solution ranges from 0.7 to 1.0 mg/mL with a target of 0.8 to 0.9 mg/mL in a sodium citrate: sodium chloride buffer pH 4-6, with a target of 4.5-5.5. The LNPs are formed by mixing equal volumes of lipid solution in ethanol with siRNA dissolved in a citrate buffer by an impinging jet process through a mixing device with ID ranging from 0.25 to 2.0 mm at a flow rate from 10 to 640 mL/min. The mixed LNP solution is held at room temperature for 0-24 hrs prior to a dilution step. […] The final product is sterile filtered and stored at 4° C. Unless indicated otherwise, all particle size measurements referred to in Tables 4 and 5 are the Z-average particle size of the fully formed nanoparticle, as measured by dynamic light scattering on a Malvern Zetasizer. The nanoparticle sample was diluted in phosphate buffered saline (PBS) so that the count rate is approximately 200-400 kcts.

[4] = Table 4, FVII siRNA LNP, Chol/DSPC/stealth lipid S010, 45/44/9/2
[5] = Table 5, PLK1-424 siRNA LNP, stealth lipid PEG-DSG, 45/44/9/2
[6] = Table 4, FVII siRNA LNP, Chol/DSPC/stealth lipid S010, molar ratio 45/44/9/2
[7] = Table 5, PLK1-424 siRNA LNP, Chol/DSPC/stealth lipid S010, 45/44/9/2
[8] = Table 5, PLK1-424 siRNA LNP, stealth lipid S010, 45/44/9/2
[9] = Table 4, FVII siRNA LNP, Chol/DSPC/stealth lipid PEG-DMG, molar ratio 45/44/9/2
[10] = Table 5, PLK1-424 siRNA LNP, Chol/DSPC/stealth lipid PEG-DSG, 45/44/9/2
[11] = Table 4, FVII siRNA LNP, Chol/DSPC/stealth lipid PEG-DMG, 45/44/9/2

| Compound | pKa ([1]; Table 4) | pKa ([1]; Table 5) | LS411 KD 3 × 3 mg/Kg (PLK-1 mRNA; stealth lipid PEG-DSG) [%] | PDI [2, 4] | PDI [2, 5] | Size (nm) [3, 6] [nm] | Size (nm) [3, 7] [nm] | LS411 KD 3 × 3 mg/Kg (PLK-1 mRNA; stealth lipid S010) [%] | PDI [2, 8] | Size (nm) [3, 9] [nm] | Size (nm) [3, 10] [nm] | PDI [2, 11] |
| --- | --- | --- | --- | --- | --- | --- | --- | --- | --- | --- | --- | --- |
| CCCCC/C=C\C/C=C\CCCCCCCC(=O)OCCCCOc1cc(CN(C)C)cc(OCCCCOC(=O)CCCCCCC/C=C\CCCCCCCC)c1 [Example 63] | 5.92 | 5.9 | 66 | 0.057 | 0.047 |  |  |  |  |  |  |  |
| CCCCC/C=C\C/C=C\CCCCCCCC(=O)OCCCOc1cc(CN(C)C)cc(OCCCOC(=O)CCCCCCC/C=C\C/C=C\CCCCC)c1 [Example 39] | 5.91 | 5.91 |  | 0.044 |  | 122.9 | 114.3 | 55 | 0.039 |  |  |  |
| CCCCCCCCCC(=O)OCCCCCCCCOc1cc(CN(C)C)cc(OCCCCCCCCOC(=O)CCCCCCCCC)c1 [Example 52] | 5.96 | 5.96 | 69 | 0.052 | 0.06 | 145.4 | 132.2 | 50 | 0.06 | 109.4 | 132.2 | 0.1 |
| CCCCCCCC(=O)OCCCCCCCCCCOc1cc(CN(C)C)cc(OCCCCCCCCCCOC(=O)CCCCCCC)c1 [Example 43] | 5.85 | 5.85 |  | 0.066 |  | 121.9 | 150.7 | 40 | 0.046 | 157.8 |  | 0.08 |
| CCCCC/C=C\C/C=C\CCCCCCCC(=O)OCCCCOc1cc(CN(C)C)cc(OCCCCOC(=O)CCCCCCC/C=C\C/C=C\CCCCC)c1 [Example 38] | 5.93 | 5.93 | 58 | 0.04 | 0.036 | 120 | 116.8 | 60 | 0.036 | 108.0 | 116.8 | 0.02 |
| CCCCCCCCCCOC(=O)CCCCCCCOc1cc(CN(C)C)cc(OCCCCCCCC(=O)OCCCCCCCCCC)c1 [Example 57] | 5.94 | 5.94 |  | 0.059 |  |  |  | 60 | 0.038 |  |  | 0.03 |
| CCCCCCCC(=O)OCCCCCCCCOc1cc(CN(C)C)cc(OCCCCCCCCOC(=O)CCCCCCC)c1 [Example 42] | 5.93 | 5.93 |  | 0.084 |  | 120 | 181.1 | 50 | 0.06 |  |  |  |
